Experimental data published in PMC10688702, “The indole motif is essential for the antitrypanosomal activity of N^5-substituted paullones” (PLOS ONE, 2023).
In brackets after ≈: the same amount, converted by molar mass.

Test: Kinetic aqueous solubility by nephelometry
Format: physicochemical
Details: phosphate-buffered saline, aqueous buffer, kinetic from dmso stock, PBS pH 7.4, 1% DMSO, 25°C, logS = decadic logarithm of molar solubility [M]
Experimental: Phosphate-buffered saline pH 7.4 was prepared according to the European Pharmacopeia 10.4 by dissolving 2.38 g sodium monohydrogen phosphate dodecahydrate, 0.19 g potassium dihydrogen phosphate and 8.0 g sodium chloride in demineralised water (to a total volume of 1000 mL). The pH was adjusted to a value of 7.4 with hydrochloric acid. The buffer was filtered through a 0.45 μm membrane filter (Chromafil® Xtra PES-45/25) before use.
The kinetic aqueous solubility was determined by nephelometry. The measurements were performed on the NEPHELOstar Plus, with accompanying software Omega 5.11 and MARS 3.20 (BMG LABTECH, Ortenberg, Germany). Generally, 2 dilution series of 1–2 weighed portions of each substance were measured. First, stock solutions of the compounds were prepared in DMSO. A series of dilutions in DMSO were prepared from one stock solution to obtain at least 3 concentrations below and 3 concentrations above the precipitation point in the measured series. The specific concentrations were usually measured as duplicates.
The 96-well plate (Corning UV transparent flat-bottom 96-well plate, Corning Incorporated, Kennenbunk, ME, USA) was inspected for contamination and scratches and measured without samples prior to the solubility measurement of the compounds. 198 μL of phosphate-buffered saline pH 7.4 was placed in a 96 well plate for each well to be measured. 2 μL of a DMSO solution was added and immediately mixed by moving the pipette plunger. This solution either contained no substance—and served as a blank for the measurement (3 wells)—or the respective DMSO dilution of the substance (2–4 wells). The concentration of the solvent DMSO in each measured solution was 1%. The concentration of the compound corresponds to a 1:100 dilution compared to the respective DMSO dilution. The well plate bottom was cleaned with a lint-free cloth and compressed air and inspected for impurities before measurement. After shaking at 500 rpm for 10 s (double orbital), the measurement was carried out in the nephelometer with the laser intensity set to 80% and beam focus of 2.5 mm at a temperature of 25°C.
The obtained measuring points, relative nephelometric units (RNU) per compound concentration, were used to model two straight lines: one straight line with constant low readings and slope → 0 characterises the concentration range where no precipitation has taken place yet; The other straight line has a steep slope and increase of the RNU per concentration and characterises the concentrations at which precipitation takes place in the respective sample vessels.
The evaluation was carried out by calculating the two straight lines and their point of intersection. Outliers and values in a saturation range for the kick-off curve (usually >800 kRNU) were not used to create the straight lines and are listed separately in the evaluation file. […] The x-value of the intersection of the two straight lines represents the kinetic solubility. The results of two dilution series are additionally indicated as range (in brackets). For measurements of 3 or more series, a mean value with standard deviation is provided. The logS value describes the decadic logarithm of the molar solubility: logS (molar solubility [M]).

| SMILES | solubility kinetic at 10 s [M] |
| --- | --- |
| CNCCNC(=O)CN1C(=O)Cc2c([nH]c3ccc(I)cc23)-c2ccc(Cl)cc21 [1f, 2-(3-Chloro-9-iodo-6-oxo-7,12-dihydrobenzo[2,3]azepino[4,5-b]indol-5(6H)-yl)-N-[2-(methylamino)ethyl]acetamide] | 2.95e-05 (≈ 15.4 µg/mL) |
| CNCCNC(=O)CN1C(=O)Cc2c([nH]c3ccc(Cl)cc23)-c2ccc(Cl)cc21 [1g, 2-(3,9-Dichloro-6-oxo-7,12-dihydrobenzo[2,3]azepino[4,5-b]indol-5(6H)-yl)-N-[2-(methylamino)ethyl]acetamide] | 4.79e-05 (≈ 20.6 µg/mL) |
| CNCCNC(=O)CN1C(=O)Cc2c([nH]c3ccc(C(F)(F)F)cc23)-c2ccc(Cl)cc21 [1h, 2-(3-Chloro-6-oxo-9-trifluoromethyl-7,12-dihydrobenzo[2,3]azepino[4,5-b]indol-5(6H)-yl)-N-[2-(methylamino)ethyl]acetamide] | 4.27e-05 (≈ 19.8 µg/mL) |
